{"source": "patent US6399590B2", "about": "“Phosphoglycolipid and methods for its use” (Corixa Corporation, priority 1998, dated 2002)", "key": {"[1]": {"test_system": "Adult mongrel dogs, left anterior descending coronary artery (LAD) occlusion/reperfusion", "assay": "Infarct size in the dog, 60 min LAD occlusion and 3 h reperfusion", "assay_type": "in vivo", "settings": "L34 35 μg/kg 24 h before occlusion + aminoguanidine (AG) 30 mg/kg s.c. 60 min before occlusion; mean ± SEM; 30 mg/kg", "description": "Adult mongrel dogs of either sex, weighing 19.0-30.0 kg were fasted overnight, anaesthetized with intravenous sodium barbital (200 mg/kg) and sodium pentobarbital (15 mg/kg), and ventilated with room air supplemented with 100% oxygen at an end expiratory pressure of 5-7 cm H2O to prevent atelectasis. Arterial blood pH PO2 and PCO2 were monitored at selected intervals by an automatic blood gas system and maintained within a normal physiological range (pH 7.35-7.45, PO2 10.6-16.0 kPa, PCO2 3,3-4.7 kPa) by adjusting the respiratory rate and oxygen flow and by an infusion of 1.5% sodium bicarbonate when necessary. Body temperature was maintained at 38±1° C. by using a heating pad.\nA double pressure-transducer-tipped catheter was inserted into the aorta and left ventricle via the left carotid artery for measurements of aortic and left ventricular pressure. Left ventricular dP/dt was determined by electronic differentiation of the left ventricular pressure pulse.\nA left thoracotomy was performed at the fifth intercostal space. The lung was retracted, the pericardium incised, and the heart suspended in a cradle. A 10-15 mm segment of the left anterior descending coronary artery (LAD) was dissected from surrounding tissue. […]\nRegional myocardial blood flow was measured by the radioactive microsphere technique. […]"}, "[2]": {"test_system": "IL-8 secretion by THP-1 cells", "assay": "IL-8 secretion in THP-1 cells (ELISA)", "assay_type": "cell-based, human", "settings": "any concentration between 1 ng/ml and 10 μg/ml; supernatants at 4, 16 and 24 hours", "description": "The human myelomonocytic cell line THP-1 is commonly used for the analysis of the proinflammatory status of various compounds. THP-1 cells (American Type Culture Collections Cat. No. 202-TIB) were grown in RPMI 1640, 10% heat inactivated fetal bovine serum (FBS) and […] β-mercaptoethanol to a cell density of between 4×10^5/ml and 7×10^5/ml. Cells were removed from culture and resuspended at 1×10^6 cells/ml in RPMI 1640 containing 5% fetal bovine serum. Resuspended cells were then pipetted into sterile, disposable polystyrene 150×25 mm petri dishes and treated with the natural maturational agent 1α, 25-dihyroxyvitamin D3 at 1×10^−7 M between 24 and 72 hours depending on the degree of maturation desired. These maturationally “pretreated” cells were then washed 3× in RPMI 1640 containing more than 2% but less than 10% fetal bovine serum. After the third wash cells were resuspended in RPMI 1640 containing 5% FBS plus 2% human AB sera (Irvine Scientific) at 5×10^5 cells/ml and transferred at 2 ml per well in a tissue culture grade, flat bottom polystyrene 24 well plate. […] Cytokine concentration in the THP-1 culture supernatants were quantified using standard human cytokine ELISA kits from R&D Laboratories. […]"}}}
{"smiles": "CCCCCCCCCCCCCCCCCC(=O)O[C@H](CCCCCCCCCCC)CC(=O)N[C@H]1[C@H](OC[C@H]2OC(O)[C@H](NC(=O)C[C@@H](CCCCCCCCCCC)OC(=O)CCCCCCCCCCCCCCC)[C@@H](O)[C@@H]2O)O[C@H](CO)[C@@H](OP(=O)(O)O)[C@@H]1OC(=O)C[C@@H](CCCCCCCCCCC)OC(=O)CCCCCCCCCCCCC", "note": "(stereo partly drawn) [L34, 2-Deoxy-6-O-[2-deoxy-4-O-phosphono-3-O-[(R)-3-tetradecanoyloxytetradecanoyl]-2-[(R)-3-octadecanoyloxytetradecanoylamino]-β-D-glucopyranosyl]-2-[(R)-3-hexadecanoyloxytetradecanoylamino]-D-glucopyranose]", "values": [{"measurement": "IS/AAR(%) (infarct size / area at risk)", "setting": "[1]", "value": "25.2±2.7", "unit": "%"}, {"measurement": "IL-8 secretion", "setting": "[2]", "value": "did not induce detectable"}]}
